Assay results reported in ChEMBL document CHEMBL5465560, “Selectivity Literature for EUbOPEN Chemogenomic Library” (2024).

Assays:
[1] = target: Tyrosine-protein kinase Lck (Homo sapiens, UniProt P06239); assay: Selectivity interaction (KinomeScan (DiscoverX)) EUB0000666a LCK; conditions: at 10 µM
[2] = target: Receptor tyrosine-protein kinase erbB-2 (Homo sapiens, UniProt P04626); assay: Selectivity interaction (Kinase panel (33PanQinase(R) Activity Assay)) EUB0000877a ERBB2
[3] = target: Serine/threonine-protein kinase B-raf (Homo sapiens) (UniProt P15056); assay: (§1) Selectivity interaction (KinomeScan (DiscoverX)) EUB0000607a BRAF; conditions: at 10 µM
Chain of Serine/threonine-protein kinase B-raf (Homo sapiens) (P15056 whole entry): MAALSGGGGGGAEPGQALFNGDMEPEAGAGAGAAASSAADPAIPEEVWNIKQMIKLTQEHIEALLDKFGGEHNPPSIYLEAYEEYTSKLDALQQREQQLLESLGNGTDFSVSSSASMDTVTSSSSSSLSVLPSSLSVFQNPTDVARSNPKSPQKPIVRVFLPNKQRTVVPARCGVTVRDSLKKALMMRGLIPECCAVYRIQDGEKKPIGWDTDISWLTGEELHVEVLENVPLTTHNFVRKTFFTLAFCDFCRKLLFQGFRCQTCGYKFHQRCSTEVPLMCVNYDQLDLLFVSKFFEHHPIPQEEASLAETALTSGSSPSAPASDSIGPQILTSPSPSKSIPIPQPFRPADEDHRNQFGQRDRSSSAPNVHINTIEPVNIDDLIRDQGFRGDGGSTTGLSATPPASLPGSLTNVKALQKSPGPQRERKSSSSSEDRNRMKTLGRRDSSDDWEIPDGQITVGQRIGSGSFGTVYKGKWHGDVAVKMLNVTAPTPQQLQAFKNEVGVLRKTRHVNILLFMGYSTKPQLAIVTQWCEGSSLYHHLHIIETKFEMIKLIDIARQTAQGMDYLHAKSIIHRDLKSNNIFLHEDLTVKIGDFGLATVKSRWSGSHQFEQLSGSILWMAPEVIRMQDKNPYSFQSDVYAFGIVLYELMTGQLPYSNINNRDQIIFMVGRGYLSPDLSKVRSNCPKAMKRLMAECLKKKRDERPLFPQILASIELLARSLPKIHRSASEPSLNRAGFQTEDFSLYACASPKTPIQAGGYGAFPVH

[4] = tested on: Serine/threonine-protein kinase B-raf (Homo sapiens), P15056 [V600E]; assay: as §1; conditions: at 10 µM
Chain of Serine/threonine-protein kinase B-raf (Homo sapiens), P15056 [V600E] (P15056 whole entry V600E): as the sequence (P15056 whole entry) above, with V600E counted along it

[5] = target: Dual specificity tyrosine-phosphorylation-regulated kinase 1B (Homo sapiens, UniProt Q9Y463); assay: Selectivity interaction (ProQinase) EUB0000171b DYRK1B
Chain of Dual specificity tyrosine-phosphorylation-regulated kinase 1B (Q9Y463 whole entry, looked up): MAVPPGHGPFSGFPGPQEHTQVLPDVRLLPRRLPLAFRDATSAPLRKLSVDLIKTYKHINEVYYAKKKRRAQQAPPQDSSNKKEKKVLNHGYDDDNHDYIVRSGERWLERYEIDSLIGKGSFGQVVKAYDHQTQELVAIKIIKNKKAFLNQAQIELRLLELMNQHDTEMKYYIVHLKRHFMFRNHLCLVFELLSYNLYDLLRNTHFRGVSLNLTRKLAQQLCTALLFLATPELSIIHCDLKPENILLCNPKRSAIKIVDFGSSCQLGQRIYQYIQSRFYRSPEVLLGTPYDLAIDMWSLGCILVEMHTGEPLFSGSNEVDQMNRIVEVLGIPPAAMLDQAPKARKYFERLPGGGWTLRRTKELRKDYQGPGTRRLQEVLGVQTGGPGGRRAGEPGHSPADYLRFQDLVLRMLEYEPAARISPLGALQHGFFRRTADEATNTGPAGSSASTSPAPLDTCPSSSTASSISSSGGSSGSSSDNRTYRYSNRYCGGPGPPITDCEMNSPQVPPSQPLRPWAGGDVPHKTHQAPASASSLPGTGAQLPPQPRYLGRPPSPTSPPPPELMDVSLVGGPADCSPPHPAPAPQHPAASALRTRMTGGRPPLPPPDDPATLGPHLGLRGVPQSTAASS

[6] = target: Mitogen-activated protein kinase 8 (Homo sapiens, UniProt P45983); assay: Selectivity interaction (Kinase screening (Upstate/Millipore)) EUB0000604a MAPK8
Chain of Mitogen-activated protein kinase 8 (P45983 whole entry): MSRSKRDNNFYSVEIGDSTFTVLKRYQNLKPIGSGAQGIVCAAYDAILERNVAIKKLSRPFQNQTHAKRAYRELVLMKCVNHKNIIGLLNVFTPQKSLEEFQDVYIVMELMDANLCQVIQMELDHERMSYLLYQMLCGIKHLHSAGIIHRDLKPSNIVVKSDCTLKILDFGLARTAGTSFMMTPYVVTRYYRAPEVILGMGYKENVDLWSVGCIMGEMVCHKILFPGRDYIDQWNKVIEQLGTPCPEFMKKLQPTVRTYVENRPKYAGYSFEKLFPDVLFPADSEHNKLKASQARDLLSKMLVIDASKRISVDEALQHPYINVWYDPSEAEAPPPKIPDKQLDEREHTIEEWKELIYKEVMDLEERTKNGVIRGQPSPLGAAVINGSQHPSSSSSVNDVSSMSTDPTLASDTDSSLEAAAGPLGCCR

[7] = target: T1, Myotonin-protein kinase (Homo sapiens) (UniProt Q09013); assay: Selectivity interaction (KinomeScan (DiscoverX)) EUB0000045b DMPK
T1 sequence (whole entry): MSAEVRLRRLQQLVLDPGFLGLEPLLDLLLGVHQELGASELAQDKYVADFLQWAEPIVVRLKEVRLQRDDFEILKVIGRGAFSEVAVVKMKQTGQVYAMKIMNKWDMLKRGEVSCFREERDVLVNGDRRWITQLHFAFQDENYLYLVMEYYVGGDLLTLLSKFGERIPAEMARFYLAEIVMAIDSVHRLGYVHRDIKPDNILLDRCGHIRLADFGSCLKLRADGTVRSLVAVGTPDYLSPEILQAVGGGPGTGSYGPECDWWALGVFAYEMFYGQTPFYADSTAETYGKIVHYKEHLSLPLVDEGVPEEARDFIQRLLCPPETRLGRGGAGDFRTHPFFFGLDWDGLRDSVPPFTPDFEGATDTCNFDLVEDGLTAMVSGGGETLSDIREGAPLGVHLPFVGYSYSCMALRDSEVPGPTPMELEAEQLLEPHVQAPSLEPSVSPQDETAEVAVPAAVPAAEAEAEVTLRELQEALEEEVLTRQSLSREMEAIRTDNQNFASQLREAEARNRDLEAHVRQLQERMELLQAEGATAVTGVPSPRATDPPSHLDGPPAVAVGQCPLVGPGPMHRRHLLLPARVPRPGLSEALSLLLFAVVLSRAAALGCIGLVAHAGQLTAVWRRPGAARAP

[8] = target: T2, Ephrin type-A receptor 6 (Homo sapiens) (UniProt Q9UF33); assay: Selectivity interaction (KinomeScan (DiscoverX)) EUB0001079a EPHA6; conditions: at 1 µM
T2 sequence (whole entry): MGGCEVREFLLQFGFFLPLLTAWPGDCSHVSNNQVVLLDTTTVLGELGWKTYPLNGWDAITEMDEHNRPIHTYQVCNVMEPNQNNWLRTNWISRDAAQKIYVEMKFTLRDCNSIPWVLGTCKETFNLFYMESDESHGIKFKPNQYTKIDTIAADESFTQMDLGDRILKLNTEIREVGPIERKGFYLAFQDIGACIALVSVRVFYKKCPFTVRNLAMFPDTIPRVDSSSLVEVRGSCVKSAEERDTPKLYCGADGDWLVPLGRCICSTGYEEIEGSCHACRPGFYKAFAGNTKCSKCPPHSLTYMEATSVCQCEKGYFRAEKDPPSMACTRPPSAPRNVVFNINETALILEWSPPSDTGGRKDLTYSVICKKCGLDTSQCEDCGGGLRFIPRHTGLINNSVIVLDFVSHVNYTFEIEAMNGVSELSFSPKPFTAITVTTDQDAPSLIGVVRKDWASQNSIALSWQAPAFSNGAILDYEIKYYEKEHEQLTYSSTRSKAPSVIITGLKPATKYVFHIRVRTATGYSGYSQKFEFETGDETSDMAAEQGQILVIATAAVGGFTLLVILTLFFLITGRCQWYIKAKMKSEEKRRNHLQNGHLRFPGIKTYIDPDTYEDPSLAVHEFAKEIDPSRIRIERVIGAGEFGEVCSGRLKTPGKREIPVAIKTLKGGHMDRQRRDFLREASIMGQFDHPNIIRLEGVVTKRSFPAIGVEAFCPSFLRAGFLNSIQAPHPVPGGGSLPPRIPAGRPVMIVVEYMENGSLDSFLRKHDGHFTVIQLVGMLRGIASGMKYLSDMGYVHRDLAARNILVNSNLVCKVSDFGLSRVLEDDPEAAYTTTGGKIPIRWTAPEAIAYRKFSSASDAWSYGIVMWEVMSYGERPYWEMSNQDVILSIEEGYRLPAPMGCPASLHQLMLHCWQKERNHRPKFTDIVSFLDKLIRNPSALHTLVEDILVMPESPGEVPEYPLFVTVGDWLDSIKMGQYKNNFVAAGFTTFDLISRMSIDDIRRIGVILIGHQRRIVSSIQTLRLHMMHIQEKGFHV

[9] = target: Serine/threonine-protein kinase ATR (Homo sapiens) (UniProt Q13535); assay: Selectivity interaction (Kinase panel (KiNativ target engagement assay in Jurkat cells)) EUB0001635a ATR; assay type: cell-based; conditions: at 1 µM
[10] = Selectivity interaction (PWWP, WD40, and Tudor domain panel (DSLS measurements, literature)) EUB0000270b SCML2
[11] = target: Serine/threonine-protein kinase NIM1 (Homo sapiens, UniProt Q8IY84); assay: Selectivity interaction (KinomeScan (DiscoverX)) EUB0000229b NIM1K; conditions: at 10 µM
Chain of Serine/threonine-protein kinase NIM1 (Q8IY84 whole entry): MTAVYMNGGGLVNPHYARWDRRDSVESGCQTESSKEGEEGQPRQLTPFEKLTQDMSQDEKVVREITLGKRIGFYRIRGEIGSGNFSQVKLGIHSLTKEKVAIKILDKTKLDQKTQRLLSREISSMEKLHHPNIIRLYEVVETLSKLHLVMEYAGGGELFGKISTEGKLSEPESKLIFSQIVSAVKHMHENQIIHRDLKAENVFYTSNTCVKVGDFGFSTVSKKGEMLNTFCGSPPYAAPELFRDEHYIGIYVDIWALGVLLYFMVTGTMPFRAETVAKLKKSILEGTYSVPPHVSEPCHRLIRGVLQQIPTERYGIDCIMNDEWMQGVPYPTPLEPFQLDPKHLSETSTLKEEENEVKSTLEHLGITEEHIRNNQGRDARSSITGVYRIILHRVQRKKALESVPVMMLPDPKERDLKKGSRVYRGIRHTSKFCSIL

[12] = target: T3, Tyrosine-protein kinase TXK (Homo sapiens) (UniProt P42681); assay: Selectivity interaction (KinomeScan (DiscoverX)) EUB0000229b TXK; conditions: at 10 µM
T3 sequence (whole entry): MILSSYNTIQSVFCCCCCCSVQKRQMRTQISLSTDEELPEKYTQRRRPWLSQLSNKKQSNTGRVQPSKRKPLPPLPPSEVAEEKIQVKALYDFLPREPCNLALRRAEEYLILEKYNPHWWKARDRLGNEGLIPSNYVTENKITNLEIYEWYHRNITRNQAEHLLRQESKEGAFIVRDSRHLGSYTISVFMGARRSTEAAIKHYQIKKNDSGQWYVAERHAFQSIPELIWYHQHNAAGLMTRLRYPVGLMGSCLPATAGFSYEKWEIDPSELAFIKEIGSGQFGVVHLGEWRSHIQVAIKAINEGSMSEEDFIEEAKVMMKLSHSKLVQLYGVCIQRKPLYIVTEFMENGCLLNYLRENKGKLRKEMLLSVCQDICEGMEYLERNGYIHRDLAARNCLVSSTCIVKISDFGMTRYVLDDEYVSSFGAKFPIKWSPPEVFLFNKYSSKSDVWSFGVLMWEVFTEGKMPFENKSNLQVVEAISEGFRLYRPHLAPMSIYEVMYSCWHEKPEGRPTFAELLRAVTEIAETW

[13] = target: Cyclin-dependent kinase 14 (Homo sapiens) (UniProt O94921); assay: Selectivity interaction (KinomeScan (DiscoverX)) EUB0000092b CDK14; conditions: at 10 µM
Chain of Cyclin-dependent kinase 14 (Homo sapiens) (O94921 whole entry): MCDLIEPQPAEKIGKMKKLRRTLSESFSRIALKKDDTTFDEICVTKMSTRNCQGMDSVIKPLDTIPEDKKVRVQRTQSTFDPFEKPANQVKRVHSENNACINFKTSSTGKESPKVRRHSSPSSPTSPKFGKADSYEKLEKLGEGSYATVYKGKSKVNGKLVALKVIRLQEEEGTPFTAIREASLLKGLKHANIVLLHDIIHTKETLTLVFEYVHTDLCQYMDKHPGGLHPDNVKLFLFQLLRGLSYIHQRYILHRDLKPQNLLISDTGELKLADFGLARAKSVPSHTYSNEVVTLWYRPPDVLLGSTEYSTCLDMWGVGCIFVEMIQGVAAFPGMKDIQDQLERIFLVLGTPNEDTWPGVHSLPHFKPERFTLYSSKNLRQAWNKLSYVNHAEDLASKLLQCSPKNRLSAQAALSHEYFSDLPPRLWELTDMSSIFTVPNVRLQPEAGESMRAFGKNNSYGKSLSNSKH

Chain of Tyrosine-protein kinase Lck (P06239 2-509 limits assumed): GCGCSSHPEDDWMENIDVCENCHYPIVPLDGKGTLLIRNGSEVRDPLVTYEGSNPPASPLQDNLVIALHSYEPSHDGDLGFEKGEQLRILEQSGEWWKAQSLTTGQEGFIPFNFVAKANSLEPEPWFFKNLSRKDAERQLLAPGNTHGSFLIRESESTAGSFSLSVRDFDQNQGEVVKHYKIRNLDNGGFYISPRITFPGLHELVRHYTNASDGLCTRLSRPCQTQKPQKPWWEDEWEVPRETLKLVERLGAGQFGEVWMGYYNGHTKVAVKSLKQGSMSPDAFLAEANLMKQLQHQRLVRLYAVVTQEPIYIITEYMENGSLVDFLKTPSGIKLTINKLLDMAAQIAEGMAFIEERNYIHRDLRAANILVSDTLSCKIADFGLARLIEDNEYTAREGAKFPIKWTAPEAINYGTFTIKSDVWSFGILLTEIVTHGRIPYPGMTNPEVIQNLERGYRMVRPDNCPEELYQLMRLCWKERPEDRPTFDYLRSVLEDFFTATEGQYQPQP
Chain of Receptor tyrosine-protein kinase erbB-2 (P04626 whole entry): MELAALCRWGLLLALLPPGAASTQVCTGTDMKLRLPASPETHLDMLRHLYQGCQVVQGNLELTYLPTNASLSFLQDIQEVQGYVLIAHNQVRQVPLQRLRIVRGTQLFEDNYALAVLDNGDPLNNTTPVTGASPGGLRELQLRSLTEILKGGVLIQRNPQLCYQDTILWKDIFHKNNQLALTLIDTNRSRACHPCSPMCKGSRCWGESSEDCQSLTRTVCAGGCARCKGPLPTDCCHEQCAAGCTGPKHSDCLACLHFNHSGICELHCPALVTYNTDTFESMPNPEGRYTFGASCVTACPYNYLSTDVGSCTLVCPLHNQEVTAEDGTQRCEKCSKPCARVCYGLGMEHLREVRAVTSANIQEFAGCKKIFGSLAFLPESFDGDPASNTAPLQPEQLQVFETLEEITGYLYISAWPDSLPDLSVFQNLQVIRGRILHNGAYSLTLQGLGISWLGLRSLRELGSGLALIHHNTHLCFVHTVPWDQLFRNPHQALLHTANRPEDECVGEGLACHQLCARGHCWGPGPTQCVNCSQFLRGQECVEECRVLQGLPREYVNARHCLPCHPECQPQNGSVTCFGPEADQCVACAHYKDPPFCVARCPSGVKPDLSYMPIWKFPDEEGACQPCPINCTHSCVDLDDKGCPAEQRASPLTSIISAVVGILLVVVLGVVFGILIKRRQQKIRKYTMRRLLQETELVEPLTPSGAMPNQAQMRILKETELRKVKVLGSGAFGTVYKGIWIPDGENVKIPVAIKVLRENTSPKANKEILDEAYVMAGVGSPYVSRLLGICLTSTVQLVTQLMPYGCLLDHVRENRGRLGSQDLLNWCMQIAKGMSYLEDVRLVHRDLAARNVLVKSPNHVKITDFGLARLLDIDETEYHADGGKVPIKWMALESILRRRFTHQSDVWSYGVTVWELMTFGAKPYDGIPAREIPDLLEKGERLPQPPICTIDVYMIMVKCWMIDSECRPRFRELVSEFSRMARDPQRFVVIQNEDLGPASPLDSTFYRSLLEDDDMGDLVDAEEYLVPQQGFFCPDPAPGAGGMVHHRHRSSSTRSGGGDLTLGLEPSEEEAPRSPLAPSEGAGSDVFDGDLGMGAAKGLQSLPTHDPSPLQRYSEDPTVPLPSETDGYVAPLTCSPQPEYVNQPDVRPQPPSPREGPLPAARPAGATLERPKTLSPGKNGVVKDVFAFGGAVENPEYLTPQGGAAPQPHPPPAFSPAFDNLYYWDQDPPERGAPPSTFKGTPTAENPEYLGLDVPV

Question: With O=C(NOC[C@H](O)CO)c1ccc(F)c(F)c1Nc1ccc(I)cc1F as the compound, how does the % of control [1] read?
Answer: The % of control was 88%.

Question: Which IC50 [2] does the source give for CCC(=O)N1CC[C@H](Nc2ncnc3c2CN(c2cnc(OC)c(C(F)(F)F)c2)CC3)C1 [LENIOLISIB] here?
Answer: Its IC50 is greater than 10 µM.

Question: Which % of control [3] does the source give for CNC(=O)Nc1ccc(-c2nc(N3CC4CCC(C3)O4)c3cnn(C4CCC5(CC4)OCCO5)c3n2)cc1 here?
Answer: The % of control was 100%.

Question: What about the % of control [4] of the same compound?
Answer: Its % of control is 100%.

Question: What does the source list for C=CC(=O)Nc1cccc(C(=O)Nc2ccc(Nc3cc(-c4[nH]c(SC)nc4C)ccn3)cc2)c1?
Answer: % of control ([5]; at 1 µM): 85%; % of control ([5]; at 5 µM): 53%

Question: Which % of inhibition [6] does the source give for Cc1cnc(Nc2ccc(F)cc2Cl)nc1-c1c[nH]c(C(=O)N[C@H](CO)c2cccc(Cl)c2)c1 here?
Answer: The % of inhibition was 34%.

Question: Which % of control ([7]; at 1 µM) does the source give for C=CC(=O)Nc1cc(-n2c(=O)ccc3cnc4ccc(-c5ccc(NS(C)(=O)=O)cc5)cc4c32)ccc1C here?
Answer: Its % of control is 91%.

Question: What about the % of control ([7]; at 10 µM) of the same compound?
Answer: Its % of control is 100%.

Question: With Nc1cnc(N2CCc3cc(S(=O)(=O)Nc4c(F)cc(Cl)cc4F)cc(N4CCCC4=O)c32)nc1 [TP-020n] as the compound, how does the % of control [8] read?
Answer: The % of control was 98%.

Question: With C=CC(=O)Nc1ccc(C(=O)Nc2[nH]nc3c2CN(C(=O)N[C@H](CN(C)C)c2ccccc2)C3(C)C)cc1 as the compound, how does the % of engagement [9] read?
Answer: The % of engagement was -11.3%.

Question: With Cc1cc(CN)cc(C)c1-c1ncn(C)c1-c1cncn1C as the compound, how does the dTagg [10] read?
Answer: Its dTagg is 0.2 K.

Question: Which % binding [11] does the source give for COc1cc(N(C)c2ccnc3ccc(C(F)(F)F)cc23)cc(OC)c1OC here?
Answer: The % binding was 100%.

Question: What about the % binding [12] of the same compound?
Answer: The % binding was 96%.

Question: With CCC(=O)N1CCN(c2ccc(-n3c(=O)ccc4cnc5ccc(-c6cnc7ccccc7c6)cc5c43)cc2C(F)(F)F)CC1 as the compound, how does the % of control [13] read?
Answer: Its % of control is 99%.
